Earlier results in US6455580B1, “Method and composition for antiviral therapy” (F&S Group, Inc., priority 1994, dated 2002).

What was measured:
[1] = not given; remark: listed apart in the source
[2] = animal studies; oleuropein itself or as component of plant tissue extracts

Row | Compound | antiviral activity in vivo | antiviral properties in vitro [1] | hypoglycemic and cardiovascular effects [2]
1 | COC(=O)C1=CO[C@@H](C)[C@@H](C=O)C1CC(=O)O (single isomer, unassigned; (-)) [(−)-elenolic acid] | little, if any, activity in vivo | antiviral properties in vitro | –
2 | C/C=C1/[C@H](O[C@@H]2O[C@H](CO)[C@@H](O)[C@H](O)[C@H]2O)OC=C(C(=O)OC)[C@H]1CC(=O)OCCc1ccc(O)c(O)c1 [oleuropein] | – | – | exhibit both hypoglycemic and cardiovascular effects
